From patent publication US11045457B2, “Piperidinyl-3-(aryloxy)propanamides and propanoates” (priority 2018, dated 2021)

Biological target: SSTR4 (Homo sapiens (Human), UniProt P31391)
Assay: Inhibition of forskolin stimulated cAMP in CHO-K1 cells overexpressing SSTR4
Type: cell-based
Settings: for EC50: read-out: SSTR4 Activity pEC50 (converted)
How it was run: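 Read-out is a HTRF LANCE Ultra cAMP competition using Eu-labelled streptavidin and biotin-cAMP, incubated 60 min at room temperature. It followed a 30 min room-temperature exposure of Kreb's Ringer-washed cells to compound plus forskolin. Potency is expressed as pEC50.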

SSTR4, sequence (P31391 whole entry): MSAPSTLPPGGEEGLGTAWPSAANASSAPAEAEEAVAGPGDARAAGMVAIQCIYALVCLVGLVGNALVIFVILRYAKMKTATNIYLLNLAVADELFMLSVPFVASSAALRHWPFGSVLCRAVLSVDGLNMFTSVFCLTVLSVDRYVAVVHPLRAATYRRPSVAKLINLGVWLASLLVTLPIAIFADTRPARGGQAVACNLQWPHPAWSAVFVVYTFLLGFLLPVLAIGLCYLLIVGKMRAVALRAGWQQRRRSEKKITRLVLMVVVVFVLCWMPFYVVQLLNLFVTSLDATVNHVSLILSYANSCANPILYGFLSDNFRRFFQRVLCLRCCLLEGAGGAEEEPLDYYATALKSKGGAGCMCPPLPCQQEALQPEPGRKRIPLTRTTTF

Row | Compound | SSTR4 Activity pEC50 | EC50 [nM]
1 | CN1CCC(NC(=O)C(C)(C)COc2ccc(Cl)cc2)CC1 [Example 217, 3-(4-chlorophenoxy)-2,2-dimethyl-N-(1-methylpiperidin-4-yl)propanamide] | 5.8 | –
2 | CN1C[C@@H](NC(=O)C(C)(C)COc2ncccc2C2CC2)[C@H](c2ccc(Cl)cc2)C1 (relative stereo) [Example 94, trans-N-(4-(4-chlorophenyl)-1-methylpyrrolidin-3-yl)-3-((3-cyclopropylpyridin-2-yl)oxy)-2,2-dimethylpropanamide] | – | 20
3 | CN1CC[C@@H](NC(=O)C(C)(C)COc2ncccc2OC(F)(F)F)[C@H](c2cnn(C(F)F)c2)C1 (relative stereo) [Example 126, trans-N-(3-(1-(difluoromethyl)-1H-pyrazol-4-yl)-1-methylpiperidin-4-yl)-2,2-dimethyl-3-((3-(trifluoromethoxy)pyridin-2-yl)oxy)propanamide] | – | 1.58
4 | Cc1ccc(C)c(OCC(C)(C)C(=O)NC2CCN(C)CC2)n1 [Example 83, 3-((3,6-dimethylpyridin-2-yl)oxy)-2,2-dimethyl-N-(1-methylpiperidin-4-yl)propanamide] | 7.3 | –
5 | Cc1ccc([C@@H]2CN(C)C[C@H]2NC(=O)C(C)(C)COc2ncccc2C)cn1 (relative stereo) [Example 60, trans-2,2-dimethyl-N-(1-methyl-4-(6-methylpyridin-3-yl)pyrrolidin-3-yl)-3-((3-methylpyridin-2-yl)oxy)propanamide] | – | 79.4
6 | CN1CCC(NC(=O)C(C)(C)COc2ncccc2Cl)CC1 [Example 38, 3-((3-chloropyridin-2-yl)oxy)-2,2-dimethyl-N-(1-methylpiperidin-4-yl)propanamide] | 7.0 | –
7 | C[C@@H]1CN(C)CC[C@H]1NC(=O)C(C)(C)COc1ncccc1C(F)(F)F (single isomer, unassigned) [Example 106] | 6.0 | –
8 | CN1C[C@@H](NC(=O)C(C)(C)COc2ncccc2C(F)(F)F)[C@H](c2ccc(C(F)(F)F)nc2)C1 (relative stereo) [Example 59, trans-2,2-dimethyl-N-(1-methyl-4-(6-(trifluoromethyl)pyridin-3-yl)pyrrolidin-3-yl)-3-((3-(trifluoromethyl)pyridin-2-yl)oxy)propanamide] | – | 31.6
9 | CN1C[C@@H](NC(=O)C(C)(C)COc2ncccc2C(F)(F)F)C2(CC2)C1 [Example 173, (S)-2,2-dimethyl-N-(5-methyl-5-azaspiro[2.4]heptan-7-yl)-3-((3-(trifluoromethyl)pyridin-2-yl)oxy)propanamide] | 6.3 | –
10 | C[C@@H]1CN(C)CC[C@H]1NC(=O)C(F)(F)COc1ncccc1C(F)(F)F (relative stereo) [Example 189, trans-N-(1,3-dimethylpiperidin-4-yl)-2,2-difluoro-3-((3-(trifluoromethyl)pyridin-2-yl)oxy)propanamide] | 6.8 | –
11 | C[C@H]1CN(C)CC[C@@H]1NC(=O)C(C)(C)COc1ccccc1Cl [Example 193, 3-(2-chlorophenoxy)-N-((3S,4S)-1,3-dimethylpiperidin-4-yl)-2,2-dimethylpropanamide] | 8.9 | –
12 | CN1CCC(NC(=O)C2(COc3ccccc3Cl)CC2)CC1 [Example 81, 1-((2-chlorophenoxy)methyl)-N-(1-methylpiperidin-4-yl)cyclopropane-1-carboxamide] | 6.3 | –
13 | C[C@@H]1CN(C)CC[C@H]1NC(=O)C(F)(F)COc1ncccc1C1CC1 (relative stereo) [Example 192, trans-3-((3-cyclopropylpyridin-2-yl)oxy)-N-(1,3-dimethylpiperidin-4-yl)-2,2-difluoropropanamide] | – | 12.6
14 | CN1CCC(NC(=O)C(C)(C)COc2ncccc2C(F)(F)F)C(F)(F)C1 (centres unmarked) [Example 118, N-(3,3-difluoro-1-methylpiperidin-4-yl)-2,2-dimethyl-3-((3-(trifluoromethyl)pyridin-2-yl)oxy)propanamide] | 6.2 | –
15 | Cc1ccc([C@@H]2CN(CC#N)C[C@H]2NC(=O)C(C)(C)COc2ncccc2C(F)(F)F)cn1 (relative stereo) [Example 103, trans-N-(1-(cyanomethyl)-4-(6-methylpyridin-3-yl)pyrrolidin-3-yl)-2,2-dimethyl-3-((3-(trifluoromethyl)pyridin-2-yl)oxy)propanamide] | – | 631
16 | Cc1cccnc1OCC(C)(C)C(=O)N[C@@H]1CN(C)C[C@H]1c1ccc(Cl)cc1 (relative stereo) [Example 55, trans-N-(4-(4-chlorophenyl)-1-methylpyrrolidin-3-yl)-2,2-dimethyl-3-((3-methylpyridin-2-yl)oxy)propanamide] | – | 31.6
17 | Cc1ccc(C2CC2)c(OCC(C)(C)C(=O)NC2CCN(C)CC2)n1 [Example 9, 3-((3-cyclopropyl-6-methylpyridin-2-yl)oxy)-2,2-dimethyl-N-(1-methylpiperidin-4-yl)propanamide] | 7.1 | –
18 | CN1CCC(NC(=O)C(C)(C)COc2ccc(F)cc2)CC1 [Example 204, 3-(4-fluorophenoxy)-2,2-dimethyl-N-(1-methylpiperidin-4-yl)propanamide] | 6.4 | –
19 | CN1CCC(NC(=O)C(C)(C)COc2ccncc2C(F)(F)F)CC1 [Example 43, 2,2-dimethyl-N-(1-methylpiperidin-4-yl)-3-((3-(trifluoromethyl)pyridin-4-yl)oxy)propanamide] | 6.9 | –
20 | CN1CCC(NC(=O)C(C)(C)COc2ncccc2C(F)(F)F)C(C)(C)C1 (centres unmarked) [Example 112, 2,2-dimethyl-3-((3-(trifluoromethyl)pyridin-2-yl)oxy)-N-(1,3,3-trimethylpiperidin-4-yl)propanamide] | 6.1 | –
21 | CN1CC[C@@H](NC(=O)C(C)(C)COc2ncncc2C2CC2)C1 [Example 4, (R)-3-((5-cyclopropylpyrimidin-4-yl)oxy)-2,2-dimethyl-N-(1-methylpyrrolidin-3-yl)propanamide] | 6.5 | –
22 | CN1CCC(NC(=O)C(C)(C)COc2ncccc2F)CC1 [Example 39, 3-((3-fluoropyridin-2-yl)oxy)-2,2-dimethyl-N-(1-methylpiperidin-4-yl)propanamide] | 6.3 | –
23 | CC(C)(COc1ncccc1C(F)(F)F)C(=O)O[C@@H]1CCNC[C@H]1c1ccccc1 (relative stereo) [Example 171, trans-3-phenylpiperidin-4-yl 2,2-dimethyl-3-((3-(trifluoromethyl)pyridin-2-yl)oxy)propanoate] | – | 316
24 | CN1CCC(NC(=O)C(C)(C)COc2ccc(C#N)cc2C(F)(F)F)CC1 [Example 73, 3-(4-cyano-2-(trifluoromethyl)phenoxy)-2,2-dimethyl-N-(1-methylpiperidin-4-yl)propanamide] | 7.0 | –
25 | Cc1cnc(OCC(C)(C)C(=O)N[C@H]2CN(C)CC23CC3)c(C)c1 [Example 154, (R)-3-((3,5-dimethylpyridin-2-yl)oxy)-2,2-dimethyl-N-(5-methyl-5-azaspiro[2.4]heptan-7-yl)propanamide] | 7.4 | –
26 | Cc1cnccc1OCC(C)(C)C(=O)NC1CCN(C)CC1 [Example 50, 2,2-dimethyl-N-(1-methylpiperidin-4-yl)-3-((3-methylpyridin-4-yl)oxy)propanamide] | 6.2 | –
